According to PubChem BioAssay (NCI):
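Cultured in 96-well plates, cells were exposed to test compound for 48 hours across five concentrations. The concentration for 50% growth inhibition is given as GI50. TGI is the concentration that stops growth completely.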

Tests used:
Experiment in all cases: NCI tumour cell line growth inhibition, 48 h
NCI-H226 lung = tested on: NCI-H226 lung
KM12 colon = tested on: KM12 colon
HT29 colon = tested on: HT29 colon
HS 578T breast = tested on: HS 578T breast
U251 CNS = tested on: U251 CNS
HL-60(TB) leukemia = tested on: HL-60(TB) leukemia
A549 NSCLC = tested on: A549 NSCLC
UACC-62 melanoma = tested on: UACC-62 melanoma
T-47D breast = tested on: T-47D breast
UO-31 renal = tested on: UO-31 renal
RXF 393 renal = tested on: RXF 393 renal
HCT-15 colon = tested on: HCT-15 colon
HCT-116 colon = tested on: HCT-116 colon
LOX IMVI melanoma = tested on: LOX IMVI melanoma
CAKI-1 renal = tested on: CAKI-1 renal
SW-620 colon = tested on: SW-620 colon
SNB-19 CNS = tested on: SNB-19 CNS
CCRF-CEM leukemia = tested on: CCRF-CEM leukemia
RPMI-8226 leukemia = tested on: RPMI-8226 leukemia
MALME-3M melanoma = tested on: MALME-3M melanoma
MDA-MB-231 breast = tested on: MDA-MB-231 breast
A498 renal = tested on: A498 renal
MOLT-4 leukemia = tested on: MOLT-4 leukemia
SR leukemia = tested on: SR leukemia
786-0 renal = tested on: 786-0 renal
NCI-H23 lung = tested on: NCI-H23 lung
DU-145 prostate = tested on: DU-145 prostate
HOP-62 NSCLC = tested on: HOP-62 NSCLC
COLO 205 colon = tested on: COLO 205 colon
PC-3 prostate = tested on: PC-3 prostate
M14 melanoma = tested on: M14 melanoma
K-562 leukemia = tested on: K-562 leukemia
EKVX NSCLC = tested on: EKVX NSCLC
SF-539 CNS = tested on: SF-539 CNS
OVCAR-5 ovarian = tested on: OVCAR-5 ovarian
IGROV1 ovarian = tested on: IGROV1 ovarian
ACHN renal = tested on: ACHN renal
BT-549 breast = tested on: BT-549 breast
SNB-75 CNS = tested on: SNB-75 CNS
MDA-MB-435 = tested on: MDA-MB-435
OVCAR-4 ovarian = tested on: OVCAR-4 ovarian
MCF7 breast = tested on: MCF7 breast
NCI-H460 lung = tested on: NCI-H460 lung
NCI-H522 lung = tested on: NCI-H522 lung
OVCAR-3 ovarian = tested on: OVCAR-3 ovarian
SK-MEL-2 melanoma = tested on: SK-MEL-2 melanoma
SK-MEL-28 melanoma = tested on: SK-MEL-28 melanoma
UACC-257 melanoma = tested on: UACC-257 melanoma
SF-295 CNS = tested on: SF-295 CNS
SN12C renal = tested on: SN12C renal
SK-OV-3 ovarian = tested on: SK-OV-3 ovarian
SF-268 CNS = tested on: SF-268 CNS
TK-10 renal = tested on: TK-10 renal
NCI/ADR-RES ovarian = tested on: NCI/ADR-RES ovarian
OVCAR-8 ovarian = tested on: OVCAR-8 ovarian
HOP-92 NSCLC = tested on: HOP-92 NSCLC

CC(C)(C)OC(=O)NCCCCn1c2c(c3ccccc3c1=O)C(=O)c1ccccc1-2
GI50 (NCI-H226 lung): 14.1 µM
TGI (NCI-H226 lung): 51.2 µM
GI50 (KM12 colon): 28.9 µM
TGI (KM12 colon): > 100 µM
GI50 (HT29 colon): 32.4 µM
TGI (HT29 colon): > 100 µM
GI50 (HS 578T breast): 20.9 µM
TGI (HS 578T breast): 52.8 µM
GI50 (U251 CNS): 15.9 µM
TGI (U251 CNS): 37.6 µM
GI50 (HL-60(TB) leukemia): 4.71 µM
TGI (HL-60(TB) leukemia): 59.4 µM
GI50 (A549 NSCLC): 17.6 µM
TGI (A549 NSCLC): 44.5 µM
GI50 (UACC-62 melanoma): 10.9 µM
TGI (UACC-62 melanoma): 27.8 µM
GI50 (T-47D breast): 21.9 µM
TGI (T-47D breast): 79.8 µM
GI50 (UO-31 renal): 8.29 µM
TGI (UO-31 renal): > 100 µM
GI50 (RXF 393 renal): 23.1 µM
TGI (RXF 393 renal): > 100 µM
GI50 (HCT-15 colon): 35.3 µM
TGI (HCT-15 colon): > 100 µM
GI50 (HCT-116 colon): 5.21 µM
TGI (HCT-116 colon): > 100 µM
GI50 (LOX IMVI melanoma): 12.5 µM
TGI (LOX IMVI melanoma): 36.7 µM
GI50 (CAKI-1 renal): 10.7 µM
TGI (CAKI-1 renal): 37.2 µM
GI50 (SW-620 colon): 25.3 µM
TGI (SW-620 colon): > 100 µM
GI50 (SNB-19 CNS): 25.1 µM
TGI (SNB-19 CNS): 94.5 µM
GI50 (CCRF-CEM leukemia): 9.52 µM
TGI (CCRF-CEM leukemia): > 100 µM
GI50 (RPMI-8226 leukemia): 4.42 µM
TGI (RPMI-8226 leukemia): > 100 µM
GI50 (MALME-3M melanoma): 27.1 µM
TGI (MALME-3M melanoma): 80.6 µM
GI50 (MDA-MB-231 breast): 17.1 µM
TGI (MDA-MB-231 breast): 53.1 µM
GI50 (A498 renal): 23.4 µM
TGI (A498 renal): 65.3 µM
GI50 (MOLT-4 leukemia): 4.32 µM
TGI (MOLT-4 leukemia): > 100 µM
GI50 (SR leukemia): 3.59 µM
TGI (SR leukemia): 42.4 µM
GI50 (786-0 renal): 21.7 µM
TGI (786-0 renal): 55.6 µM
GI50 (NCI-H23 lung): 20.8 µM
TGI (NCI-H23 lung): 43.4 µM
GI50 (DU-145 prostate): 9.59 µM
TGI (DU-145 prostate): > 100 µM
GI50 (HOP-62 NSCLC): 28.7 µM
TGI (HOP-62 NSCLC): > 100 µM
GI50 (COLO 205 colon): 44 µM
TGI (COLO 205 colon): > 100 µM
GI50 (PC-3 prostate): 8.71 µM
TGI (PC-3 prostate): > 100 µM
GI50 (M14 melanoma): 36.4 µM
TGI (M14 melanoma): > 100 µM
GI50 (K-562 leukemia): 24.8 µM
TGI (K-562 leukemia): > 100 µM
GI50 (EKVX NSCLC): 61.5 µM
TGI (EKVX NSCLC): > 100 µM
GI50 (SF-539 CNS): 25.9 µM
TGI (SF-539 CNS): 62.8 µM
GI50 (OVCAR-5 ovarian): 44.7 µM
TGI (OVCAR-5 ovarian): > 100 µM
GI50 (IGROV1 ovarian): 23 µM
TGI (IGROV1 ovarian): > 100 µM
GI50 (ACHN renal): 15.7 µM
TGI (ACHN renal): 50.2 µM
GI50 (BT-549 breast): 24.5 µM
TGI (BT-549 breast): 80.6 µM
GI50 (SNB-75 CNS): 35.4 µM
TGI (SNB-75 CNS): > 100 µM
GI50 (MDA-MB-435): 35.3 µM
TGI (MDA-MB-435): > 100 µM
GI50 (OVCAR-4 ovarian): 47.8 µM
TGI (OVCAR-4 ovarian): > 100 µM
GI50 (MCF7 breast): 21.3 µM
TGI (MCF7 breast): > 100 µM
GI50 (NCI-H460 lung): 5.9 µM
TGI (NCI-H460 lung): 34.8 µM
GI50 (NCI-H522 lung): 27 µM
TGI (NCI-H522 lung): > 100 µM
GI50 (OVCAR-3 ovarian): 5.42 µM
TGI (OVCAR-3 ovarian): 23.3 µM
GI50 (SK-MEL-2 melanoma): 52.1 µM
TGI (SK-MEL-2 melanoma): > 100 µM
GI50 (SK-MEL-28 melanoma): 38.2 µM
TGI (SK-MEL-28 melanoma): > 100 µM
GI50 (UACC-257 melanoma): 29.7 µM
TGI (UACC-257 melanoma): 71.1 µM
GI50 (SF-295 CNS): 16.5 µM
TGI (SF-295 CNS): 56.1 µM
GI50 (SN12C renal): 23.1 µM
TGI (SN12C renal): 69.3 µM
GI50 (SK-OV-3 ovarian): 50.2 µM
TGI (SK-OV-3 ovarian): > 100 µM
GI50 (SF-268 CNS): 20.9 µM
TGI (SF-268 CNS): > 100 µM
GI50 (TK-10 renal): 20.7 µM
TGI (TK-10 renal): 47.7 µM
GI50 (NCI/ADR-RES ovarian): 15.7 µM
TGI (NCI/ADR-RES ovarian): 45.7 µM
GI50 (OVCAR-8 ovarian): 8.75 µM
TGI (OVCAR-8 ovarian): 30.3 µM

Nc1nonc1-c1nc2ccccc2n1Cc1ccc(F)cc1
GI50 (NCI-H226 lung): > 100 µM
TGI (NCI-H226 lung): > 100 µM
GI50 (KM12 colon): 3.71 µM
TGI (KM12 colon): > 100 µM
GI50 (HT29 colon): 3.55 µM
TGI (HT29 colon): > 100 µM
GI50 (HS 578T breast): 3.18 µM
TGI (HS 578T breast): > 100 µM
GI50 (U251 CNS): 7.48 µM
TGI (U251 CNS): > 100 µM
GI50 (A549 NSCLC): 5.69 µM
TGI (A549 NSCLC): > 100 µM
GI50 (UACC-62 melanoma): 4.63 µM
TGI (UACC-62 melanoma): > 100 µM
GI50 (T-47D breast): > 100 µM
TGI (T-47D breast): > 100 µM
GI50 (UO-31 renal): 5.72 µM
TGI (UO-31 renal): > 100 µM
GI50 (RXF 393 renal): 4.42 µM
TGI (RXF 393 renal): > 100 µM
GI50 (HCT-15 colon): 3.6 µM
TGI (HCT-15 colon): > 100 µM
GI50 (HCT-116 colon): 4.81 µM
TGI (HCT-116 colon): > 100 µM
GI50 (LOX IMVI melanoma): 6.48 µM
TGI (LOX IMVI melanoma): > 100 µM
GI50 (CAKI-1 renal): 3.48 µM
TGI (CAKI-1 renal): > 100 µM
GI50 (SW-620 colon): 3.54 µM
TGI (SW-620 colon): > 100 µM
GI50 (SNB-19 CNS): 14.6 µM
TGI (SNB-19 CNS): > 100 µM
GI50 (MALME-3M melanoma): 5.09 µM
TGI (MALME-3M melanoma): > 100 µM
GI50 (MDA-MB-231 breast): 6.84 µM
TGI (MDA-MB-231 breast): > 100 µM
GI50 (A498 renal): 2.2 µM
TGI (A498 renal): > 100 µM
GI50 (MOLT-4 leukemia): 5.5 µM
TGI (MOLT-4 leukemia): > 100 µM
GI50 (SR leukemia): 4.89 µM
TGI (SR leukemia): > 100 µM
GI50 (786-0 renal): 29.1 µM
TGI (786-0 renal): > 100 µM
GI50 (NCI-H23 lung): 87 µM
TGI (NCI-H23 lung): > 100 µM
GI50 (DU-145 prostate): > 100 µM
TGI (DU-145 prostate): > 100 µM
GI50 (HOP-92 NSCLC): 4.04 µM
TGI (HOP-92 NSCLC): 36.7 µM
GI50 (HOP-62 NSCLC): 14.6 µM
TGI (HOP-62 NSCLC): > 100 µM
GI50 (COLO 205 colon): 5.02 µM
TGI (COLO 205 colon): > 100 µM
GI50 (M14 melanoma): 4.64 µM
TGI (M14 melanoma): > 100 µM
GI50 (K-562 leukemia): 4.37 µM
TGI (K-562 leukemia): > 100 µM
GI50 (SF-539 CNS): 8.14 µM
TGI (SF-539 CNS): > 100 µM
GI50 (OVCAR-5 ovarian): > 100 µM
TGI (OVCAR-5 ovarian): > 100 µM
GI50 (IGROV1 ovarian): 5.25 µM
TGI (IGROV1 ovarian): > 100 µM
GI50 (ACHN renal): 16 µM
TGI (ACHN renal): > 100 µM
GI50 (BT-549 breast): 9.8 µM
TGI (BT-549 breast): > 100 µM
GI50 (SNB-75 CNS): 1.41 µM
TGI (SNB-75 CNS): 9.52 µM
GI50 (MDA-MB-435): 1.87 µM
TGI (MDA-MB-435): 5.89 µM
GI50 (OVCAR-4 ovarian): > 100 µM
TGI (OVCAR-4 ovarian): > 100 µM
GI50 (MCF7 breast): 3.78 µM
TGI (MCF7 breast): > 100 µM
GI50 (NCI-H460 lung): 4.25 µM
TGI (NCI-H460 lung): > 100 µM
GI50 (NCI-H522 lung): 4.42 µM
TGI (NCI-H522 lung): > 100 µM
GI50 (OVCAR-3 ovarian): 5.8 µM
TGI (OVCAR-3 ovarian): > 100 µM
GI50 (SK-MEL-28 melanoma): 7.89 µM
TGI (SK-MEL-28 melanoma): > 100 µM
GI50 (UACC-257 melanoma): > 100 µM
TGI (UACC-257 melanoma): > 100 µM
GI50 (SF-295 CNS): 13.1 µM
TGI (SF-295 CNS): > 100 µM
GI50 (SK-OV-3 ovarian): 16.8 µM
TGI (SK-OV-3 ovarian): > 100 µM
GI50 (SF-268 CNS): 9.61 µM
TGI (SF-268 CNS): > 100 µM
GI50 (TK-10 renal): 6.78 µM
TGI (TK-10 renal): > 100 µM
GI50 (NCI/ADR-RES ovarian): 4.16 µM
TGI (NCI/ADR-RES ovarian): > 100 µM
GI50 (OVCAR-8 ovarian): > 100 µM
TGI (OVCAR-8 ovarian): > 100 µM
